Assay results as given in article PMC12566046, “Arylpiperazinyl-Benzocycloheptapyrrole-Carboxamides Endowed with Dual Anticancer and Antiviral Activities” (Molecules, 2025).
Where two headings read alike, the source gives them in different places.

Assays:
in vitro [1] = details: African green monkey
[2] = tested on: ZIKV, strain Brazil/2016/INMI1; assay: ZIKV viral yield reduction assay on Huh-7 cells; type: cell-based, Zika virus; details: for EC50: Zika virus
Experimental: We developed a protocol to screen the potential antiviral activity of compounds 1–20 against ZIKV (strain Brazil) on Huh-7 cells, against an H1N1 IAV strain (PR/8/1934) on MDCK cells, and against SARS-CoV-2 (strain Milano) on Vero-TMPRSS. Each compound was tested in duplicate at concentrations of 50 μM, 5 μM, and 0.5 μM. Treatment was applied immediately after infection, and at 24–48 h post-infection, supernatants were collected to assess viral yield, determined as PFU/mL for ZIKV and SARS-CoV-2 or as TCID50/mL for IAV. The test allowed us to evaluate both the antiviral action and the cytotoxicity of each compound, comparing them with reference compounds, such as sofosbuvir for ZIKV and EIDD-1931 for IAV and SARS-CoV-2 (Supplementary Materials, Figures S87–S89).
Viral yield reduction assays for ZIKV and SARS-CoV-2 were performed as previously described by Plicanti. Briefly, 1 × 10^4 Huh-7 cells/well and 1.2 × 10^4 VERO TMPRSS cells/well were infected with ZIKV (MOI 1) or SARS-CoV-2 (MOI 0.05) in a primary 96-well plate for 2 h at 37 °C, 5% CO2. […] Supernatants were collected after 48 h (Huh-7) or 24 h (VERO TMPRSS), diluted 3-fold, and added onto VERO E6 or VERO TMPRSS monolayers, respectively. After 2 h at 37 °C, the inoculum was replaced with 0.75% carboxymethyl cellulose (Merck®, Darmstadt, Germany) in DMEM 2% FBS. After 48–72 h, cells were then fixed with 4% buffered formalin solution (Merck®, Darmstadt, Germany) and stained with 1% crystal violet (Merck®, Darmstadt, Germany). Titres and percentage of inhibition were calculated as follows:
PFU/mL = number of plaques*3^n/vol infection, where n is the dilution where plaques were counted:% inhibition = 100 × (1 − Titre-compound/Titre-untreated control) where Titre-compound and Titre-untreated control are the titres (PFU/mL) obtained on cells treated with compound or DMSO, respectively.
SI was obtained by dividing CC50 by EC50 for each drug/virus/cell line. Compounds with SI values ≥ 10 were active in vitro.

[3] = tested on: HCT-116 (colon cancer cell line); assay: NCI-60 single-dose assay; type: cell-based, human; details: Homo sapiens, HCT-116, read-out: growth inhibition (GI%) and cytotoxicity (negative values)
Text: (§1) We first evaluated the cytotoxic activity of tricyclic-pyrrole carboxamides 1–20 using the NCI-60 cell line panel, representing nine different human cancers: leukemia, melanoma, and cancers of the lung, colon, central nervous system (CNS), ovary, kidney, prostate, and breast (the one-dose graph for compounds 1–20 is reported in Supplementary Materials, Figures S43–S62). Compounds 1, 5, 10, 11, 17, and 20 satisfied pre-determined threshold inhibition criteria in a minimum number of cell lines; therefore, they were also tested in the full five-dose assay (Figures S63–S68 in the Supplementary Materials).

[4] = Cytotoxicity on uninfected Huh-7 cells (WST-8, crystal violet); details: human, uninfected Huh-7 cells
in vitro [5] = details: dog
[6] = tested on: SK-MEL-5 (melanoma cell line); assay: NCI-60 single-dose assay; type: cell-based, human; details: Homo sapiens, SK-MEL-5, read-out: growth inhibition (GI%) and cytotoxicity (negative values)
Text: as §1

[7] = tested on: SARS-CoV-2 VR PV10734 (strain Milano); assay: microbe, parasite or virus in culture; type: cell-based
[8] = tested on: K-562 (leukemia cell line); assay: NCI-60 single-dose assay; type: cell-based; details: Homo sapiens, K562, read-out: growth inhibition (GI%) and cytotoxicity (negative values)
Text: as §1

NCI-60 cell line panel = assay: NCI-60 single-dose assay, whole panel; type: cell-based, human; details: summary over the panel
Text: as §1

in vitro [9] = details: human
M14 (melanoma cell line) = assay: NCI-60 single-dose assay; type: cell-based, human; details: Homo sapiens, M14, read-out: growth inhibition (GI%) and cytotoxicity (negative values)
Text: as §1

[10] = tested on: COLO 205 (colon cancer cell line); assay: NCI-60 single-dose assay; type: cell-based, human; details: Homo sapiens, COLO 205, read-out: growth inhibition (GI%) and cytotoxicity (negative values)
Text: as §1

[11] = tested on: HCC-2998 (colon cancer cell line); assay: NCI-60 single-dose assay; type: cell-based, human; details: Homo sapiens, HCC 2998, read-out: growth inhibition (GI%) and cytotoxicity (negative values)
Text: as §1

[12] = tested on: CCRF-CEM (leukemia cell line); assay: NCI-60 single-dose assay; type: cell-based, human; details: Homo sapiens, read-out: growth inhibition (GI%) and cytotoxicity (negative values)
Text: as §1

[13] = tested on: NCI-H460 (non-small cell lung cancer cell line); assay: NCI-60 single-dose assay; type: cell-based, human; details: Homo sapiens, NCI-H460, read-out: growth inhibition (GI%) and cytotoxicity (negative values)
Text: as §1

SR (leukemia cell line) = assay: NCI-60 single-dose assay; type: cell-based, human; details: Homo sapiens, read-out: growth inhibition (GI%) and cytotoxicity (negative values)
Text: as §1

[14] = tested on: KM12 (colon cancer cell line); assay: NCI-60 single-dose assay; type: cell-based, human; details: Homo sapiens, KM12, read-out: growth inhibition (GI%) and cytotoxicity (negative values)
Text: as §1

[15] = tested on: RPMI-8226 (leukemia cell line); assay: NCI-60 single-dose assay; type: cell-based, human; details: Homo sapiens, RPMI-8226, read-out: growth inhibition (GI%) and cytotoxicity (negative values)
Text: as §1

[16] = tested on: HL-60(TB) (leukemia cell line); assay: NCI-60 single-dose assay; type: cell-based, human; details: Homo sapiens, HL-60, read-out: growth inhibition (GI%) and cytotoxicity (negative values)
Text: as §1

[17] = tested on: HCT-15 (colon cancer cell line); assay: NCI-60 single-dose assay; type: cell-based, human; details: Homo sapiens, HCT-15, read-out: growth inhibition (GI%) and cytotoxicity (negative values)
Text: as §1

[18] = tested on: HT29 (colon cancer cell line); assay: NCI-60 single-dose assay; type: cell-based, human; details: Homo sapiens, HT-29, read-out: growth inhibition (GI%) and cytotoxicity (negative values)
Text: as §1

[19] = tested on: SW-620 (colon cancer cell line); assay: NCI-60 single-dose assay; type: cell-based, human; details: Homo sapiens, SW-620, read-out: growth inhibition (GI%) and cytotoxicity (negative values)
Text: as §1

[20] = tested on: MOLT-4 (leukemia cell line); assay: NCI-60 single-dose assay; type: cell-based, human; details: Homo sapiens, MOLT-4, read-out: growth inhibition (GI%) and cytotoxicity (negative values)
Text: as §1

[21] = tested on: IAV strain A/PR/8/34 (H1N1)
MDCK cells = assay: Cytotoxicity on uninfected MDCK cells (WST-8, crystal violet)
[22] = tested on: MCF-7 (breast cancer cell line); assay: NCI-60 single-dose assay; type: cell-based, human; details: Homo sapiens, MCF7, read-out: growth inhibition (GI%) and cytotoxicity (negative values), MCF-7, 10^−5 M
Text: as §1

[23] = Huh-7, read-out: ZIKV/Huh‐7 EC50
[24] = preliminary screening (50, 5, 0.5 μM), Huh-7, read-out: ZIKV/Huh‐7 EC50
[25] = Severe acute respiratory syndrome coronavirus 2, preliminary screening (50, 5, 0.5 μM), Vero TMPRSS, read-out: SARS‐CoV‐2/Vero TMPRSS EC50

Row | SMILES | CC50 at 24 h (in vitro [1]) [µM] | EC50 [2, 23] [µM] | inhibition at 10 µM [3] [%] | CC50 at 48 h [4] [µM] | CC50 (in vitro [5]) [µM] | EC50 [2, 24] [µM] | inhibition at 10 µM [6] [%] | EC50 [7, 25] [µM] | inhibition at 10 µM [8] [%] | growth inhibition (GI%) reached against cancer cell lines of the NCI-60 panel (NCI-60 cell line panel) [%] | also measured
1 | COc1cccc(N2CCN(CCNC(=O)c3[nH]c4c(c3Cl)CCCc3ccccc3-4)CC2)c1 [Compound 6] | 121 | 3.24 | 64 | 53.5 | 66 |  |  |  |  |  | 
2 | N#Cc1ccccc1N1CCN(CCNC(=O)c2[nH]c3c(c2Cl)CCCc2ccccc2-3)CC1 [Compound 8, 3-Chloro-N-(2-(4-(2-cyanophenyl)piperazin-1-yl)ethyl)-1,4,5,6-tetrahydrobenzo[6,7]cyclohepta[1,2-b]pyrrole-2-carboxamide] | 67.5 |  |  | 50.6 | 119 | 2.87 | 75.3 | 58.4 | 62.4 |  | 
3 | O=C(NCCN1CCN(c2ccc(Cl)cc2)CC1)c1[nH]c2c(c1Cl)CCCc1ccccc1-2 [Compound 3] | 143 |  |  | 62.6 |  | 3.24 |  |  |  | < 60 | 
4 | CC(C)OC(=O)[C@H](C)N[P@](=O)(OC[C@H]1O[C@@H](n2ccc(=O)[nH]c2=O)[C@](C)(F)[C@@H]1O)Oc1ccccc1 [sofosbuvir, reference compound] |  |  |  | 300 |  | 2.07 |  |  |  |  | selectivity index (SI) ([2]; ZIKV, Huh-7 cells, CC50/EC50): 178.32; EC50 ([2]; ZIKV, Huh-7 cells, 48 h, full dose-response, read-out: EC50): 1.47 µM; CC50 (in vitro [9]): 262 µM
5 | CCOc1ccccc1N1CCN(CCNC(=O)c2[nH]c3c(c2Cl)CCCc2ccccc2-3)CC1 [Compound 7] | 38.5 | 3.82 | 76.1 | 50.7 | 5.6 |  | 77.7 | 37.3 | 82.6 |  | inhibition at 10 µM (M14 (melanoma cell line)): 88.6%; inhibition at 10 µM [10]: 88.8%; inhibition at 10 µM [11]: < 60%; inhibition at 10 µM [12]: < 60%; inhibition at 10 µM [13]: 60.8%; inhibition at 10 µM (SR (leukemia cell line)): 70%; inhibition at 10 µM [14]: < 60%; inhibition at 10 µM [15]: 63.4%; inhibition at 10 µM [16]: < 60%; inhibition at 10 µM [17]: 82.1%; inhibition at 10 µM [18]: 72.7%; inhibition at 10 µM [19]: < 60%; inhibition at 10 µM [20]: 66.5%
6 | O=c1nc(NO)ccn1[C@@H]1O[C@H](CO)[C@@H](O)[C@H]1O [EIDD-1931, reference compound] |  |  |  |  |  |  |  |  |  |  | EC50 ([21]; IAV, MDCK cells, 48 h, full dose-response): 0.39 µM; IAV/MDCK SI ([21]; preliminary screening): < 24.15; EC50 ([21]; read-out: IAV/MDCK EC50, preliminary screening (50, 5, 0.5 μM), MDCK): 2.07 µM; CC50 (MDCK cells; MDCK cells, 48 h, full dose-response): 138 µM; CC50 (MDCK cells; read-out: IAV/MDCK CC50, preliminary screening (50, 5, 0.5 μM), MDCK): < 50 µM; EC50 ([7]; SARS-CoV-2, VERO TMPRSS cells, 24 h, full dose-response, read-out: EC50): 0.05 µM; EC50 ([7]; preliminary screening (50, 5, 0.5 μM), Vero TMPRSS, read-out: SARS‐CoV‐2/Vero TMPRSS EC50): 0.11 µM; CC50 (Vero TMPRSS cells; VERO TMPRSS cells, 24 h, full dose-response): 22.2 µM; CC50 (Vero TMPRSS cells; read-out: SARS‐CoV‐2/Vero TMPRSS CC50, preliminary screening (50, 5, 0.5 μM), Vero TMPRSS): 13.4 µM
7 | O=C(NCCN1CCN(c2ccccc2)CC1)c1[nH]c2c(c1Cl)CCCc1ccccc1-2 [Compound 2, 3-Chloro-N-(2-(4-phenylpiperazin-1-yl)ethyl)-1,4,5,6-tetrahydrobenzo[6,7]cyclohepta[1,2-b]pyrrole-2-carboxamide] |  |  |  | < 50 |  | 43.9 |  |  |  | < 60 | 
8 | O=C(NCCN1CCN(c2ccccc2Cl)CC1)c1[nH]c2c(c1Cl)CCCc1ccccc1-2 [Compound 4] | 57.9 | 4.39 |  | 59.9 | 14.7 |  |  | 42.5 |  |  | inhibition at 10 µM [22]: 60%
9 | O=C(NCCN1CCN(c2ccc(Cl)c(Cl)c2)CC1)c1[nH]c2c(c1Cl)CCCc1ccccc1-2 [Compound 9] | 67.7 |  |  | 65.5 |  | 3.24 |  |  |  | < 60 | 
10 | COc1cccc(N2CCN(CCNC(=O)c3c(Cl)[nH]c4c3CCCc3ccccc3-4)CC2)c1 [Compound 16] | 50.2 |  | < 60 |  | 42.9 |  | 88.6 |  | 77.6 |  | inhibition at 10 µM [22]: 73%; inhibition at 10 µM [10]: < 60%; inhibition at 10 µM [11]: < 60%; inhibition at 10 µM [12]: < 60%; inhibition at 10 µM (SR (leukemia cell line)): 73.6%; inhibition at 10 µM [14]: < 60%; inhibition at 10 µM [15]: 60%; inhibition at 10 µM [16]: < 60%; inhibition at 10 µM [17]: < 60%; inhibition at 10 µM [18]: 74.9%; inhibition at 10 µM [19]: < 60%; inhibition at 10 µM [20]: < 60%
